We go through 22 compounds from US8895558B2, “Arylpiperazine-containing pyrrole 3-carboxamide derivatives for treating depressive disorders” (Green Cross Corporation, priority 2008, dated 2014).

The target of assay [1] is T1, human recombinant serotonin 5-HT2A receptor (Homo sapiens, UniProt P28223).
T1 construct: purchased PerkinElmer Life and Analytical Sciences, USA; host or cells: CHO-K1
Description: Binding affinity for serotonin 5-HT2A receptor ([3H]Ketanserin). The note with it: CHO-K1 expressed receptor, 1 nM [3H]Ketanserin. The method in brief:
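Membranes from CHO-K1 cells expressing recombinant receptor (5 ug/well) incubated 60 min at 27 with 1 nM [3H]ketanserin in 50 mM Tris-HCl pH 7.4, 4 mM CaCl2, 0.1% ascorbic acid; mianserin 20 uM defined nonspecific binding. Filtration and counting; IC50 by nonlinear regression over 7-8 concentrations in duplicate.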

In assay [2] the target is T2, human recombinant 5-HT2C receptor (Homo sapiens, UniProt P28335).
T2 construct: purchased PerkinElmer
T2 sequence (P28335 33-458): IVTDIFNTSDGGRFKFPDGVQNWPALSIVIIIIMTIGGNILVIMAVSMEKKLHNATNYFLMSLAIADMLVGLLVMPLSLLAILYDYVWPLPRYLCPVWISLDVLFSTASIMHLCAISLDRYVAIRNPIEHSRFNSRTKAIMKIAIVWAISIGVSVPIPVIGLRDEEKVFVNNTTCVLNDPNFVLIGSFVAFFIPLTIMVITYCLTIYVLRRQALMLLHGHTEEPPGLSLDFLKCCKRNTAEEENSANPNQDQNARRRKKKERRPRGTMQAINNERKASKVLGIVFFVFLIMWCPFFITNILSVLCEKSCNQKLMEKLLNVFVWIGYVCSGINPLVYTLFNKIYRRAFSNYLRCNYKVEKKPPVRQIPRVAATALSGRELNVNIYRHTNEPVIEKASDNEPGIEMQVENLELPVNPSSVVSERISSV
The assay is described as follows: Binding affinity for serotonin 5-HT2C receptor ([3H]Mesulergine). Particulars: CHO-K1 membranes, 1.3 nM [3H]Mesulergine. The method in brief: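 Competition binding with [3H]mesulergine; nonspecific binding defined with 100 uM mianserin. Incubation 60 min at 27, stopped by rapid filtration onto glass fiber filters presoaked in 0.5% PEI.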

Assay [3] has as its target T3, human serotonin transporter (Homo sapiens, UniProt P31645).
T3 construct: purchased PerkinElmer; host or cells: HEK-293
The assay is described as follows: Binding affinity for serotonin transporter ([3H]Imipramine). The note with it: HEK-293 membranes, 2 nM [3H]Imipramine. In short, it runs like this: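 Membranes from HEK-293 cells expressing human serotonin transporter (5 ug/well) incubated with compound and 2 nM [3H]imipramine in 50 mM Tris-HCl pH 7.4, 120 mM NaCl, 5 mM KCl, 30 min at 27. Bound ligand separated by filtration onto glass fiber filters presoaked in 0.5% PEI, washed with ice-cold Tris-HCl/0.9% NaCl.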

SMILES strings stand for the structures. pIC50: −log10 of the molar value. Where a name gives a salt, the structure may show the parent alone.

T3 sequence (P31645 whole entry): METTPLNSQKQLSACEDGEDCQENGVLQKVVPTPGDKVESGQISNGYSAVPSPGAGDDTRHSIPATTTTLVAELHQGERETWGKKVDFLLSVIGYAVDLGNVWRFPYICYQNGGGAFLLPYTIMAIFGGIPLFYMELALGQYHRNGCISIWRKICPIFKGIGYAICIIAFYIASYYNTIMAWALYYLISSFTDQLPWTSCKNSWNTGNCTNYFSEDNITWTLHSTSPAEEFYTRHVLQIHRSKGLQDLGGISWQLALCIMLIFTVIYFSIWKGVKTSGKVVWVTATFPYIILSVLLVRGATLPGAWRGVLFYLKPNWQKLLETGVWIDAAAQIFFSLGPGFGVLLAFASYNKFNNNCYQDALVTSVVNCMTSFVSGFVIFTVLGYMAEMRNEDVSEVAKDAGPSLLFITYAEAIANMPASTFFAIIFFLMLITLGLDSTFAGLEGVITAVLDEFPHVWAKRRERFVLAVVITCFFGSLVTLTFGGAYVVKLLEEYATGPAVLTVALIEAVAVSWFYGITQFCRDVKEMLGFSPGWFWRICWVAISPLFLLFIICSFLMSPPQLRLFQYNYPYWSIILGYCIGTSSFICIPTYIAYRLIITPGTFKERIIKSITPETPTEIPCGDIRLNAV
T1 sequence (P28223 whole entry): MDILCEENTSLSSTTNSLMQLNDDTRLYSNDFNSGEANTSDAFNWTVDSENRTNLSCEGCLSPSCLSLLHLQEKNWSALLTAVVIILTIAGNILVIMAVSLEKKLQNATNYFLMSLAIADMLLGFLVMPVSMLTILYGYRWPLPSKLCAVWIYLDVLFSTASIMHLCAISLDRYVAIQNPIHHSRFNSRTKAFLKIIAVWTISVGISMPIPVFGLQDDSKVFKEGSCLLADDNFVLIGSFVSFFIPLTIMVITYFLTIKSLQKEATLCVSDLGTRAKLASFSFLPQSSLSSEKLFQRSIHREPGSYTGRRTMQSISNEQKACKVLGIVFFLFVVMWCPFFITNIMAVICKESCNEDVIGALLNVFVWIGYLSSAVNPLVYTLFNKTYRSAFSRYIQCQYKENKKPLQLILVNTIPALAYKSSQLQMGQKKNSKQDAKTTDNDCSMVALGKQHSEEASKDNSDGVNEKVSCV

For the compound `Cc1c(C(=O)NCCCN2CCN(c3cccc(Cl)c3Cl)CC2)cc(-c2ccccc2)n1-c1ccc(F)cc1` [Example 16, N-(3-(4-(2,3-dichlorophenyl)piperazin-1-yl)propyl)-1-(4-fluorophenyl)-2-methyl-5-phenyl-1H-pyrrole-3-carboxamide], the pIC50 in assay [1] is 8.39; in assay [2], 6.33; in assay [3], 6.58.
The like results for `CCCCn1c(-c2ccccc2)cc(C(=O)NCCCN2CCN(c3cccc(Cl)c3Cl)CC2)c1C` [Example 71, 1-butyl-N-(3-(4-(2,3-dichlorophenyl)piperazin-1-yl)propyl)-2-methyl-5-phenyl-1H-pyrrole-3-carboxamide hydrochloride] were, in that order, 6.73, 7.49 and 6.19.
The like results for `CCCn1c(-c2ccccn2)cc(C(=O)NCCCN2CCN(c3cccc(Cl)c3Cl)CC2)c1C` [Example 93, N-(3-(4-(2,3-dichlorophenyl)piperazin-1-yl)propyl)-2-methyl-1-propyl-5-(pyridin-2-yl)-1H-pyrrole-3-carboxamide dihydrochloride] were, in that order, 7.24, 6.19 and 6.40.
The corresponding values for `CCCn1c(-c2ccccn2)cc(C(=O)NCCN2CCN(c3cccc(Cl)c3Cl)CC2)c1C` [Example 96, N-(2-(4-(2,3-dichlorophenyl)piperazin-1-yl)ethyl)-2-methyl-1-propyl-5-(pyridin-2-yl)-1H-pyrrole-3-carboxamide dihydrochloride] are 6.39, 6.21 and 6.42.
Take `Cc1[nH]c(C(C)(C)C)cc1C(=O)NCCCN1CCN(c2cccc(Cl)c2Cl)CC1` [Example 127, 5-tert-butyl-N-(3-(4-(2,3-dichlorophenyl)piperazin-1-yl)propyl)-2-methyl-1H-pyrrole-3-carboxamide hydrochloride]: the pIC50 in assay [1] is 6.97; in assay [2] it was 5.86; in assay [3], 6.07.
The like results for `CCn1c(-c2ccc(Cl)cc2)cc(C(=O)NCCCN2CCN(c3cccc(C)c3C)CC2)c1C` [Example 63, 5-(4-chlorophenyl)-N-(3-(4-(2,3-dimethylphenyl)piperazin-1-yl)propyl)-1-ethyl-2-methyl-1H-pyrrole-3-carboxamide hydrochloride] were, in that order, 6.82, 7.41 and 7.03.
The corresponding values for `Cc1cccc(N2CCN(CCCCNC(=O)c3cc(-c4ccc(Cl)cc4)[nH]c3C)CC2)c1C` [Example 46, 5-(4-chlorophenyl)-N-(4-(4-(2,3-dimethylphenyl)piperazin-1-yl)butyl)-2-methyl-1H-pyrrole-3-carboxamide hydrochloride] are 7.49, 7.06 and 7.01.
The corresponding values for `Cc1c(C(=O)N(C)CCCN2CCN(c3cccc(Cl)c3Cl)CC2)cc(-c2ccccc2)n1C` [Example 37, N-(3-(4-(2,3-dichlorophenyl)piperazin-1-yl)propyl)-N,1,2-trimethyl-5-phenyl-1H-pyrrole-3-carboxamide hydrochloride] are 7.41, 7.46 and 7.01.
With `CCCn1c(-c2cccc(OC)c2)cc(C(=O)NCCCN2CCN(c3cccc(Cl)c3Cl)CC2)c1C` [Example 82, N-(3-(4-(2,3-dichlorophenyl)piperazin-1-yl)propyl)-5-(3-methoxyphenyl)-2-methyl-1-propyl-1H-pyrrole-3-carboxamide hydrochloride], the pIC50 in assay [1] was 6.86; in assay [2] it was 7.37; in assay [3], 6.71.
The like results for `Cc1cccc(N2CCN(CCCNC(=O)c3cc(-c4ccccc4)[nH]c3C)CC2)c1C` [Example 24, N-(3-(4-(2,3-dimethylphenyl)piperazin-1-yl)propyl)-2-methyl-5-phenyl-1H-pyrrole-3-carboxamide] were, in that order, 6.52, 6.21 and 7.11.
The corresponding values for `Cc1c(Cl)cccc1N1CCN(CCCNC(=O)c2cc(C)n(-c3ccccc3)c2C)CC1` [Example 176, N-(3-(4-(3-chloro-2-methylphenyl)piperazin-1-yl)propyl)-2,5-dimethyl-1-phenyl-1H-pyrrole-3-carboxamide] are 6.77, 6.90 and 7.82.
As for `COc1ccc(-c2cc(C(=O)NCCCN3CCN(c4cccc(Cl)c4Cl)CC3)c(C)[nH]2)cc1` [Example 73, N-(3-(4-(2,3-dichlorophenyl)piperazin-1-yl)propyl)-5-(4-methoxyphenyl)-2-methyl-1H-pyrrole-3-carboxamide hydrochloride], the results for the pIC50 in assay [1], in assay [2] and in assay [3] were 7.43, 6.70 and 6.69, respectively.
The like results for `Cc1c(C(=O)NCCN2CCN(c3cccc(Cl)c3Cl)CC2)cc(-c2ccc(Cl)cc2)n1C` [Example 68, 5-(4-chlorophenyl)-N-(2-(4-(2,3-dichlorophenyl)piperazin-1-yl)ethyl)-1,2-dimethyl-1H-pyrrole-3-carboxamide hydrochloride] were, in that order, 6.53, 7.62 and 6.75.
The like results for `CCCn1c(-c2ccccc2)cc(C(=O)NCCCCN2CCN(c3cccc(Cl)c3Cl)CC2)c1C` [Example 34, N-(4-(4-(2,3-dichlorophenyl)piperazin-1-yl)butyl)-2-methyl-5-phenyl-1-propyl-1H-pyrrole-3-carboxamide hydrochloride] were, in that order, 6.98, 7.68 and 7.12.
The corresponding values for `Cc1cccc(N2CCN(CCCNC(=O)c3cc(-c4ccccc4)n(CC(C)C)c3C)CC2)c1C` [Example 27, N-(3-(4-(2,3-dimethylphenyl)piperazin-1-yl)propyl)-1-isobutyl-2-methyl-5-phenyl-1H-pyrrole-3-carboxamide] are 6.05, 5.89 and 6.46.
For the compound `Cc1c(C(=O)NCCCN2CCN(c3cccc(Cl)c3Cl)CC2)c(C)n(C)c1-c1ccccc1` [Example 79, N-(3-(4-(2,3-dichlorophenyl)piperazin-1-yl)propyl)-1,2,4-trimethyl-5-phenyl-1H-pyrrole-3-carboxamide hydrochloride], the pIC50 in assay [1] was 7.48; in assay [2] it was 7.80; in assay [3] it was 7.10.
The like results for `C=CCCc1cc(C(=O)NCCCN2CCN(c3cccc(Cl)c3Cl)CC2)c(C)[nH]1` [Example 135, 5-(but-3-enyl)-N-(3-(4-(2,3-dichlorophenyl)piperazin-1-yl)propyl)-2-methyl-1H-pyrrole-3-carboxamide] were, in that order, 7.19, 6.80 and 6.84.
The like results for `COc1cccc(N2CCN(CCCNC(=O)c3cc(-c4ccccc4)n(C)c3C)CC2)c1OC` [Example 158, N-(3-(4-(2,3-dimethoxyphenyl)piperazin-1-yl)propyl)-1,2-dimethyl-5-phenyl-1H-pyrrole-3-carboxamide] were, in that order, 6.18, 6.11 and 5.90.
The like results for `CCn1c(-c2ccccc2)cc(C(=O)NCCCCN2CCN(c3cccc(Cl)c3Cl)CC2)c1C` [Example 43, N-(4-(4-(2,3-dichlorophenyl)piperazin-1-yl)butyl)-1-ethyl-2-methyl-5-phenyl-1H-pyrrole-3-carboxamide hydrochloride] were, in that order, 7.55, 7.55 and 7.19.
For the compound `Cc1c(C(=O)NCCCN2CCN(c3cccc(Cl)c3Cl)CC2)cc(-c2ccccc2)n1CC(C)C` [Example 28, N-(3-(4-(2,3-dichlorophenyl)piperazin-1-yl)propyl)-1-isobutyl-2-methyl-5-phenyl-1H-pyrrole-3-carboxamide], the pIC50 in assay [1] is 6.39; in assay [2] it was 6.47; in assay [3], 6.42.
The like results for `CCCCc1cc(C(=O)NCCCN2CCN(c3cccc(Cl)c3Cl)CC2)c(C)[nH]1` [Example 137, 5-butyl-N-(3-(4-(2,3-dichlorophenyl)piperazin-1-yl)propyl)-2-methyl-1H-pyrrole-3-carboxamide] were, in that order, 7.17, 6.88 and 7.21.
The corresponding values for `CCCn1c(-c2ccccc2)cc(C(=O)NCCCN2CCN(c3ccccc3Br)CC2)c1C` [Example 88, N-(3-(4-(2-bromophenyl)piperazin-1-yl)propyl)-2-methyl-5-phenyl-1-propyl-1H-pyrrole-3-carboxamide] are 6.66, 6.20 and 6.65.

The pIC50 is the IC50 on a negative log10 scale, so that one unit is a factor of ten.
